According to patent US20090305994A1, “Compounds Modulating Vegf Receptor and Uses Thereof” (priority 2005, published 2009):

Experiments:
KDR = target: T1, KDR (Bos taurus, UniProt A0AAA9SPC9); experiment: KDR activation (immunoprecipitation, phospho-tyrosine western blot) in BAEC; format: cell-based, bovine; details: 15 minutes of exposure
T1 construct: we immunoprecipitated total KDR and Flt-1 from BAEC whole extracts; endogenous in cells; host or cells: BAEC (bovine aorta endothelial cells, SV40-immortalized)
Procedure: (§1) VEGF receptors binding and activation. a) VEGF competitive binding on BAEC. 1 μg of membrane protein was plated with QK and [^125I]-VEGF (500000 cpm, 10^−10 M). b) KDR activation. After stimulation total KDR was immunoprecipitated from a whole-cell protein extracts and phospho-tyrosine was visualized by a specific antibody, anti-rabbit HRP-conjugated secondary antibody and standard chemiluminescence. c) Flt-1 activation. After stimulation total Flt-1 was immunoprecipitated from a whole-cell protein extracts and phospho-tyrosine was visualized by specific antibody, anti-rabbit HRP-conjugated secondary antibody and standard chemiluminescence.
(§2) Western blot. Cells were plated on six-well dishes and serum starved overnight. On the next day, cells were treated with different amount of peptide in absence or in presence of VEGF165 for 15 minutes at 37° C. and then dissolved in RIPA-SDS buffer (50 mM Tris-HCl (pH 7.5), 150 mM NaCl, 1% NP-40, 0.25% deoxycholate, 9.4 mg/50 ml sodium orthovanadate, […]). In some experiments, total KDR and Flt-1 were immunoprecipitated from an equal amount of whole-cell protein extracts using protein A/G agarose beads conjugated with antibodies raised against total KDR or Flt-1 (R&D). Proteins from whole-cell extracts or immunocomplexes were resolved by PAGE and transferred to nitrocellulose. […]

Flt-1 = target: T2, Flt-1 (Bos taurus, UniProt F1MDD9); experiment: Flt-1 activation (immunoprecipitation, phospho-tyrosine western blot) in BAEC; format: cell-based, bovine; details: 15 minutes of exposure
T2 construct: we immunoprecipitated total KDR and Flt-1 from BAEC whole extracts; endogenous in cells; host or cells: BAEC (bovine aorta endothelial cells, SV40-immortalized)
T2 sequence (F1MDD9 1-1251): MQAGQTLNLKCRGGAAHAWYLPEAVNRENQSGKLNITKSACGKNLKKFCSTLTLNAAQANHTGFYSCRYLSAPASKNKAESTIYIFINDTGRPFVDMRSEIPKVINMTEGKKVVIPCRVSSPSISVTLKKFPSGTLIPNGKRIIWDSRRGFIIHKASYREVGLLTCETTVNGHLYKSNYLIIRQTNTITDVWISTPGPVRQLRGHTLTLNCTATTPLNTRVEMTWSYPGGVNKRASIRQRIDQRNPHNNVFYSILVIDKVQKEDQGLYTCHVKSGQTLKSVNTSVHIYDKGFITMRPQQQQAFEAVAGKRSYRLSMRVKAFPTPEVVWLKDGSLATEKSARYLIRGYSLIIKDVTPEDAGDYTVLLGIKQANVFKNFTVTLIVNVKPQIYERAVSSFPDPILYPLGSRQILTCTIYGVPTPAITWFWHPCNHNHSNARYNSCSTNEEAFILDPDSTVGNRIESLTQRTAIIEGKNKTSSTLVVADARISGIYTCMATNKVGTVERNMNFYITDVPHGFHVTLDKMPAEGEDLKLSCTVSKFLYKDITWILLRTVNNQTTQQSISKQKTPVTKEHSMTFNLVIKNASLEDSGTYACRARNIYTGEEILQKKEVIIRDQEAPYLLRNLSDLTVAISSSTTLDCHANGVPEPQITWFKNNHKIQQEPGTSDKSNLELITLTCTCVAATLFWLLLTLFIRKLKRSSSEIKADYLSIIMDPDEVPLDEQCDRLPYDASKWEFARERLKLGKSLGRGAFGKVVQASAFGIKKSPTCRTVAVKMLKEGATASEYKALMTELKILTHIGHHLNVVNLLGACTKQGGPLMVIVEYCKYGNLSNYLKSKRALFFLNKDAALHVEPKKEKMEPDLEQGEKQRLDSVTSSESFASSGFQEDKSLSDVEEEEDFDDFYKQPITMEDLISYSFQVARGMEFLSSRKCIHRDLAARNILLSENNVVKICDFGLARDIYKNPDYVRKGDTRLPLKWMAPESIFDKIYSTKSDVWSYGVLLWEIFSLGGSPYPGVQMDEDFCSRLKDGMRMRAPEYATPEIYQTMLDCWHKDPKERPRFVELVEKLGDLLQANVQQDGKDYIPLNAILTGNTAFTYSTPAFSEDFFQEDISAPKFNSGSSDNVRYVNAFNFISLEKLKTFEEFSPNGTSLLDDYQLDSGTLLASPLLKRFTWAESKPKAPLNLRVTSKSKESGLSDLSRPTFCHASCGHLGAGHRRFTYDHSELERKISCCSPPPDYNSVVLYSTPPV
Procedure: as §1, §2

T1 sequence (A0AAA9SPC9 20-1356): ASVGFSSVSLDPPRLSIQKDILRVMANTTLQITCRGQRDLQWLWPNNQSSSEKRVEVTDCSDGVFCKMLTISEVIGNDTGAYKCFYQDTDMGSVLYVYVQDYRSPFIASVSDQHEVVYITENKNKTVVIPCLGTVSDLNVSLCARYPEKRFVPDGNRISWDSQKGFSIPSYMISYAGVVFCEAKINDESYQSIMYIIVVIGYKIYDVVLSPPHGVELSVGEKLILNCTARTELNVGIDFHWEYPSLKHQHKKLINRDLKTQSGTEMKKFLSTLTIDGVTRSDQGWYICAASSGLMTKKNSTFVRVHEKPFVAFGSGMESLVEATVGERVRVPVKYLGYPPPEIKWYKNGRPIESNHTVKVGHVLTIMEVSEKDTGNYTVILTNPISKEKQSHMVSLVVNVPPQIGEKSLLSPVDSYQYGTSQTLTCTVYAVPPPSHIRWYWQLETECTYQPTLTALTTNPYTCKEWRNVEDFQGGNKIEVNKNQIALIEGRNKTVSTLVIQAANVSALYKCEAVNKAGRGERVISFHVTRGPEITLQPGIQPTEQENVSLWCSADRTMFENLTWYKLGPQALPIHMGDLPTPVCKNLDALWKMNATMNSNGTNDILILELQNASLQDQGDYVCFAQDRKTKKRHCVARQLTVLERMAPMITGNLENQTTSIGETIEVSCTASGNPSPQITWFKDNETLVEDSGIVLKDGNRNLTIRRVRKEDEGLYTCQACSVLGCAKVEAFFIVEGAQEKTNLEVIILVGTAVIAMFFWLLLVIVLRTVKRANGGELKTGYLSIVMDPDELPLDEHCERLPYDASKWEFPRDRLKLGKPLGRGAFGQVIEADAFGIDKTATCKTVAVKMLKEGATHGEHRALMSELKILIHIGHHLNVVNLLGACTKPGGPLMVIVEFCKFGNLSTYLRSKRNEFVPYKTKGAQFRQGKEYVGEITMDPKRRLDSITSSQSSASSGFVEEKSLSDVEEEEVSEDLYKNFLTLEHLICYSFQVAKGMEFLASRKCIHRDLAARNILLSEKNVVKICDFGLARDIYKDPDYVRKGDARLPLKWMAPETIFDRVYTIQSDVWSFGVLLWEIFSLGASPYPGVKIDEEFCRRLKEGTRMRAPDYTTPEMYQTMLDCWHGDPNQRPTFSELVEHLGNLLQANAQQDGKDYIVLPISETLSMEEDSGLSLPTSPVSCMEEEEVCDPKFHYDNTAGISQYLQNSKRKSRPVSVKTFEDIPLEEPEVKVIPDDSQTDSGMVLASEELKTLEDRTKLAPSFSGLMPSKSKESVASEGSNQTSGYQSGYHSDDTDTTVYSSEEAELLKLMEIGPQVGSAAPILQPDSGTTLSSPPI

In the case of KLTWQELYQLKYKGI [QK], the phospho-KDR levels (KDR) is reported as “reduced phospho-KDR below the levels in unstimulated cells” and the Flt-1 phosphorylation (Flt-1) is reported as “increased the levels of phosphorylation of Flt-1”.
